Reference: patent US11401303B2, “Synthetic peptide BRAP and application in preparation of anti-inflammatory drug for COVID-19 thereof” (TAIAN CITY QIHANG BIOTECHNOLOGY CO., priority 2020, dated 2022)
Ends that are not written are not given here.

Experiments:
[1] = target: Bradykinin B2 receptor (Homo sapiens, UniProt P30411); assay: cell-based
[2] = tested on: IL-6; assay: IL-6 content in blood serum of LPS-induced mice (ELISA); format: in vivo, Balb/C mice
Method: 1. A reagent was taken out of a kit and balanced for 30 min at room temperature;
2. standard wells and sample wells were set, and 50 ul standards at different concentrations were respectively added to each standard well.
3. 50 ul sample to be tested (blood sample from each group of mice model constructed in example 9) was first added to the wells of the sample to be tested;
4. 100 ul HRP-labeled detection antibody was respectively added to each standard well and well to be tested;
5. reaction wells were sealed by a microplate membrane for incubation for 60 min at 37° C.;
6. liquid was discarded, water was dried by an absorbent paper, each well was filled with scrubbing solution, standing for 1 min;
7. a culture solution was discarded, water was dried by an absorbent paper, and steps 2-6 were operated repeatedly for 5 times;
8. 50 ul substrate A/B was respectively added to each well for incubation for 15 min at 37° C.;
9. 50 ul stop buffer was added to each well to detect an OD value at 450 nm by an microplate reader within 15 min.

[3] = tested on: OVA-induced allergic rhinitis; assay: Rat allergic nasal inflammation (OVA-induced allergic rhinitis), intranasal administration; format: in vivo, SD rat; conditions: bilateral nasal cavities 50 μL/side, 4 weeks
Method: SD rat modeling: two stages of intraperitoneal injection for sensitization and intranasal dripping for stimulation. Ovalbumin was injected intraperitoneally, and 1 mg ovalbumin (V-class Sigma, USA) was dissolved in 1 ml normal saline, and 30 mg of aluminum hydroxide was added as an immunologic adjuvant. Each rat was intraperitoneally injected 1 ml ovalbumin suspension prepared above with 1 ml/time every other day and for 7 times in total; and stimulated intranasally with ovalbumin on the 15th day; 20 mg ovalbumin (V-class Sigma, USA) were dissolved in 1 ml normal saline to be prepared into a 2% solution; and the 2% ovalbumin solution was used for stimulation by nasal dripping; and 50 ul nasal drips were administered in each of the nasal cavities of each rat for 7 consecutive days.
Blank control group: 30 mg of aluminum hydroxide+1 ml of normal saline were mixed evenly, and then injected intraperitoneally; and the method was the same as the above.
Normal saline was dripped into nasal cavities on the 15th day.
After the final nasal dripping was performed, each rat was observed and evaluated according to a scoring table: Sneezing, nose scratching, gasping and nasal secretions
1. Administration way: a drug was administered with a micro-sampling gun, bilateral nasal cavities of a rat were administered with 50 μL/side, after being administered for 20 min, a 2% ovalbumin solution was administered to bilateral nasal cavities of the rat; 50 μL/side nasal dripping was administered for provocation; the above treatment was performed for 4 consecutive weeks to observe the pharmacodynamic effect.
High-dose synthetic peptide brap: a synthetic peptide brap freeze-dried powder (5 mg/bottle) was taken, and 1.63 ml sterile saline solution was added for dissolving;
medium-dose synthetic peptide brap: a synthetic peptide brap freeze-dried powder (5 mg/bottle) was taken, and 4.89 ml sterile saline solution was added for dissolving;
low-dose synthetic peptide brap: a synthetic peptide brap freeze-dried powder (5 mg/bottle) was taken, and 14.67 ml sterile saline solution was added for dissolving;

[4] = tested on: BK-induced pulmonary microvascular leakage; assay: BK-induced pulmonary microvascular leakage in guinea pigs (Evans blue in lung tissue); format: in vivo, guinea pig; conditions: intranasal 50 μL/side/day for 3 days
Method: Male guinea pigs weighing 400 g±5% were randomly divided into 6 groups, 6 per group.
1. normal control group: an equal volume of normal saline was injected intravenously on the lateral foot vein, for 3 days;
2. model group: an equal volume of normal saline was injected intravenously on the lateral foot vein, for 3 days;
3. positive control group: 1.25 mg/3 ml/kg BW dexamethasone was injected intravenously on the lateral foot vein, for 3 days;
4. high-dose synthetic peptide brap group: bilateral nasal cavities of the guinea pig were injected the synthetic peptide brap having a concentration of 3.0 mM/L by a micro-sampling gun with 50 μL/side/day for 3 days; […]
2. […] The solution was centrifuged for 5 min at 1500 rpm/min; supernatant was taken to measure the absorbance with a wavelength of 620 nm.
3. Preparation of an EB standard curve: 0.1 mL 0.1% EB solution was taken accurately and added 0.9 mL normal saline to be prepared into 1 mL 0.01% EB standard solution; 0.1 mL EB standard solution was taken and added formamide to 2 mL with a final concentration of 5 mg/L; then the solution was diluted by formamide to 4, 2, 1, and 0.5 mg/L. An absorbancy OD value was measured at a wavelength of 620 nm; OD value was denoted y-coordinate; EB concentration was denoted by x-coordinate; then a standard curve of OD value-EB concentration was drawn, as shown in FIG. 7A.

Sequence of Bradykinin B2 receptor (P30411 whole entry): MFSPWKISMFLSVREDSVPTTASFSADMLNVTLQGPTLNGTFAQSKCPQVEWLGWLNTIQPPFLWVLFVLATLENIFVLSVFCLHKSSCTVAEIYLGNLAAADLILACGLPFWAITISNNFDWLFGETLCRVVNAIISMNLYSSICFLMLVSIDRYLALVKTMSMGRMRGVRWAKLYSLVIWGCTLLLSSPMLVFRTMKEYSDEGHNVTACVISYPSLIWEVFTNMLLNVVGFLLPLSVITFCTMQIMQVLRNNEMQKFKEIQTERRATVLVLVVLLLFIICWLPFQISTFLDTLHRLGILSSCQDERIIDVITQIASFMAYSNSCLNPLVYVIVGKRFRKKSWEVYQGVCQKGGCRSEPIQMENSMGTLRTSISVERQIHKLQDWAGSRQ

RVLNGPEAPA [brap]
IC50 [1]: ~1 mM
IL-6 level in serum compared with the model group ([2]; low, medium and high-dose intravenous injection groups, p<0.01): dose-response relationship
IL-6 level in LPS-induced blood ([2]; nasal dripping group, at 12 h, P<0.05): can decrease
Scoring change before and after treatment ([3]; all dose groups of the peptide, continued OVA provocation): decreases
Allergic rhinitis symptom scoring compared with the model group ([3]; high, medium and low dose, significant difference): can improve the OVA-induced allergic rhinitis symptoms
Content of EB in lung tissues compared with the positive control group (dexamethasone) ([4]; P>0.05, except for the low-dose group): no significant difference
Content of EB in lung tissues compared with the model group ([4]; low, medium, high dose (0.33, 1.0, 3.0 mM/L), P<0.01, dose-response relationship): obviously lower than that in the model group
